From ChEMBL document CHEMBL2028040, “Malaria Box”

Tests used:
[1] = tested on: Trypanosoma brucei rhodesiense; assay: MMV: Inhibition of Trypanosoma brucei rhodesiense (STIB 900) (HAT in vitro).; type: functional, organism-based
Plasmodium falciparum [2] = assay: MMV: Inhibition of Plasmodium falciparum 3D7 (EC50).; type: functional, organism-based
[3] = MMV: Cytotoxicity against human fibroblasts (MRC-5) cells.; conditions: MRC-5 cells (human fibroblasts)
[4] = tested on: Trypanosoma brucei brucei; assay: MMV: Inhibition of Trypanosoma brucei brucei (Squib 427) (HAT in vitro).; type: functional, organism-based
Leishmania infantum = assay: MMV: Inhibition of Leishmania infantum (MHOM/MA/BE/67) in vitro.; type: functional, organism-based
Trypanosoma cruzi = assay: MMV: Inhibition of Trypanosoma cruzi (Tulahuen C4 LacZ) (Chagas in vitro).; type: functional, organism-based
Plasmodium falciparum [5] = assay: MMV: Inhibition of Plasmodium falciparum 3D7 at 5uM compound concentration.; type: functional
Plasmodium falciparum [6] = assay: MMV: Inhibition of Plasmodium falciparum K1 (EC50).; type: functional, organism-based

Row | Structure (SMILES) | IC50 [1] | EC50 (Plasmodium falciparum [2]) | IC50 [3] | IC50 [4] | IC50 (Leishmania infantum) | IC50 (Trypanosoma cruzi) | inhibition at 5 µM (Plasmodium falciparum [5]) | EC50 (Plasmodium falciparum [6])
1 | COc1ccc(OC)c(C2C3=C(CC(C)(C)CC3=O)N(c3ccc(Cl)c(Cl)c3)C3=C2C(=O)CC(C)(C)C3)c1 | 16.2 µM | 0.912 µM | > 32 µM | 16.6 µM | > 32 µM | > 32 µM | 90% | 1.07 µM
2 | c1ccc2cc3c(Nc4ccc(N5CCOCC5)cc4)ccnc3cc2c1 | 0.346 µM | 0.251 µM | > 32 µM | 0.332 µM | > 32 µM | 1.29 µM | 97% | 0.516 µM
3 | OC(Cn1nnc2ccccc21)Cn1c2ccc(Br)cc2c2cc(Br)ccc21 (stereo not drawn) | > 32 µM | 1.26 µM | > 32 µM | > 32 µM | > 32 µM | > 32 µM | 98% | 1.23 µM
4 | COc1ccccc1CNC(=O)CCn1c(=O)[nH]c2ccccc2c1=O | > 32 µM | 0.0726 µM | > 32 µM | > 32 µM | > 32 µM | > 32 µM | 64% | 0.19 µM
5 | CCCCC(O)(c1ccc(Cl)cc1)C(CN1CCOCC1)c1ccc(Cl)cc1 (stereo not drawn) | 4.32 µM | 1.38 µM | > 32 µM | 3.91 µM | 10.2 µM | 14.3 µM | 98% | 1.53 µM
6 | O=C(Nc1ccc(F)c(Cl)c1)Nc1ccc(Cl)c(Cl)c1 | 3.33 µM | 2.06 µM | 4.51 µM | 3.94 µM | 16.2 µM | 3.7 µM | 95% | 2.13 µM
7 | COc1ccc(C=C2SC(Nc3ccc(F)cc3)=NC2=O)c(OC)c1 | > 32 µM | 0.591 µM | > 32 µM | > 32 µM | > 32 µM | > 32 µM | 92% | 0.825 µM
8 | c1ccc2c(NCCc3c[nH]c4ccccc34)c3ccccc3nc2c1 | 0.85 µM | 0.304 µM | 3.97 µM | 1.04 µM | 1.19 µM | 1.89 µM | 97% | 0.668 µM
9 | Cc1ccc(N2C3c4ccccc4N(S(=O)(=O)c4ccc(C)cc4)C2c2ccccc2N3S(=O)(=O)c2ccc(C)cc2)cc1 | 16.5 µM | 0.0248 µM | > 32 µM | > 32 µM | 16.2 µM | > 32 µM | 97% | 0.0276 µM
10 | CCOc1ccc2c(c1)CN(Cc1ccc(Cl)cc1)CO2 | 11 µM | 0.439 µM | > 32 µM | 7 µM | > 32 µM | > 32 µM | 97% | 0.184 µM
11 | O=C(Nc1ccc(Cl)c(Cl)c1)Nc1ccc(Cl)c(Cl)c1 | 2.17 µM | 1.16 µM | > 32 µM | 2.5 µM | 10.6 µM | 3.82 µM | 96% | 1.26 µM
12 | Cc1c(C)n(CC(O)CNC2CCCCC2C)c2ccccc12 (stereo not drawn) | 1.01 µM | 0.769 µM | > 32 µM | 3.84 µM | > 32 µM | > 32 µM | 96% | 0.438 µM
13 | Cc1ccnc(NC(c2cccc(OCc3ccccc3)c2)c2ccc3cccnc3c2O)c1 (stereo not drawn) | 1 µM | 1.02 µM | 2 µM | 1.2 µM | 4.06 µM | 1.05 µM | 97% | 1.02 µM
14 | CC(C)CCNCC(O)Cn1c2ccccc2c2ccccc21 (stereo not drawn) | 1 µM | 0.473 µM | 16.2 µM | 0.931 µM | 4 µM | 6.73 µM | 97% | 0.21 µM
15 | CCC1(C)CC(CCNCc2ccccc2O)(c2ccc(C)cc2)CCO1 (stereo not drawn) | 1.01 µM | 0.142 µM | 16.1 µM | 3.05 µM | 4.32 µM | 15.7 µM | 97% | 0.0372 µM
16 | CCc1ccc(Nc2cc(C)c3ccc(O)cc3n2)cc1 | 11.9 µM | 0.194 µM | 7.77 µM | 12.2 µM | 4.32 µM | 3.72 µM | 98% | 0.0161 µM
17 | Oc1ccc(-c2nc(-c3ccc4oc5ccc(-c6[nH]c(-c7ccc(O)cc7)nc6-c6ccccc6)cc5c4c3)c(-c3ccccc3)[nH]2)cc1 | 2.75 µM | 0.326 µM | 15.2 µM | 3.38 µM | 4 µM | 4.91 µM | 98% | 0.285 µM
18 | Cc1cc(Nc2ccc(OCc3ccccc3)cc2)nc2cc(O)ccc12 | 3.54 µM | 0.684 µM | 14 µM | 11.9 µM | 16.2 µM | 4.39 µM | 96% | 0.52 µM
19 | CC1CCN(Cc2c(O)ccc3cc(-c4nc5ccccc5s4)c(=O)oc23)CC1 | < 0.125 µM | 1.13 µM | 23.2 µM | 18.4 µM | 19 µM | 18 µM | 91% | 0.47 µM
20 | CCCCCC(=O)N1c2ccccc2N=C2CC(c3ccc(OC)c(OC)c3)CC(O)=C2C1c1ccc(C(F)(F)F)cc1 (stereo not drawn) | 1.69 µM | 0.237 µM | > 32 µM | 4.06 µM | 25.4 µM | 12.1 µM | 100% | 0.288 µM
21 | CC1CCN(Cc2ccc(NC(=O)c3cc4ccc5cccnc5c4[nH]3)cc2)CC1 | 0.861 µM | 0.274 µM | 1.45 µM | 1.41 µM | 3.01 µM | 2.2 µM | 97% | 0.773 µM
22 | O=c1cc(NC2CCN(CCCc3ccccc3)CC2)c2cc(Cl)ccc2o1 | 4.09 µM | 0.846 µM | > 32 µM | 15 µM | 10.1 µM | 15.6 µM | 97% | 0.532 µM
23 | Cc1ccc(C2CC(C(F)(F)F)n3nc(C(=O)N4CCN(C(c5ccccc5)c5ccccc5)CC4)cc3N2)cc1 (stereo not drawn) | 4.11 µM | 0.454 µM | > 32 µM | 16.5 µM | 16.2 µM | 16.6 µM | 98% | 1.61 µM
24 | Cc1cc(C)c2c(c1)OCN(Cc1ccccc1Cl)C2 | 16.2 µM | 0.268 µM | > 32 µM | 16.6 µM | 16.2 µM | > 32 µM | 98% | 0.101 µM
25 | CC1CC2=C(CC1CNCCCN(C)C)C(C)(C)CCC2 (stereo not drawn) | < 0.125 µM | 1.01 µM | 4.15 µM | < 0.125 µM | 3.01 µM | 1.08 µM | 98% | 1 µM
26 | CCCCNCC(O)(c1ccc(Cl)cc1)c1ccc(Cl)cc1 | 3.86 µM | 0.843 µM | > 32 µM | 3.27 µM | 13.6 µM | 14.3 µM | 97% | 0.525 µM
